Results as given in patent publication US11896609B2, “Pharmaceutical composition for treating inflammatory diseases comprising germanium telluride nanosheets coated with polyvinylpyrrolidone” (Industry-Academic Cooperation Foundation, priority 2021, dated 2024).

How the values were obtained:
[1] = IVIS fluorescence imaging biodistribution after oral administration; assay type: in vivo, mice; settings: 5 mg/kg oral, IVIS at 1, 6 and 24 hours
Protocol: After GeTe-PVP NSs (5 mg/kg, 100 μl) or an ICG solution (5 mg/kg, 200 μl) were orally administered, the mice were subjected to laparotomy at 1, 6, and 24 hours, and the biodistribution of GeTe-PVP NSs and the ICG solution was photographed with an in vivo imaging system (IVIS). Furthermore, the stomach, intestine, liver, lungs, pancreas, heart, and kidneys were removed at each time to confirm their biodistribution by fluorescence imaging with IVIS and quantify the amounts of GeTe-PVP NSs and ICG accumulated in each organ by FL intensity.

[2] = test system: DSS-induced colitis model; experiment: DSS-induced inflammatory bowel disease (colitis) model; assay type: in vivo, C57BL/6 mice
Protocol: 7- to 8-week-old male C57BL/6 mice (Orient Bio Inc.; Seongnam, Korea) were used for the experiments. Colitis was induced by allowing an acute inflammatory bowel disease model to ingest drinking water to which 2% dextran sodium sulfate (DSS; MP Biochemical, Irvine, Ca, USA) was added for 7 days. A normal control group was allowed to ingest the same amount of water for the same time (FIG. 19).
The experimental groups were classified into the following four groups (Table 1): a normal control group (Group 1, n=8), a group in which colitis is induced by DSS (Group 2, n=8), a group in which sulfasalazine (SAZ), which is a common therapeutic agent, was administered to a DSS-induced colitis model (Group 3, n=8, SAZ=200 mg/kg/day), and a group in which GeTe-PVP NSs were administered to a DSS-induced colitis model (Group 4, n=8, GeTe-PVP NS=5 mg/kg/day).
Body weight changes and the disease activity index (DAI) of mice were confirmed every day for 7 days. Each score of weight loss index (0 to 4; FIG. 20A), rectal bleeding observed with the naked eye in the stool or anus (0 to 3; FIG. 20C), and stool consistency (0 to 3; FIG. 20B) is summed to evaluate the disease activity index on a 10-point scale (FIG. 20D). [Stevceva L, Pavli P, Husband A, Ramsay A, Doe WF. Dextran sulphate sodium-induced colitis is ameliorated in interleukin 4 deficient mice. Genes Immun 2001; 2:309-316.] […]

time after administration until which a large amount remained in the intestine (FL intensity) [1]	SMILES	disease activity index (DAI) compared to DSS group (Group 2) ([2]; DSS colitis mice, SAZ 200 mg/kg/day, GeTe-PVP NS 5 mg/kg/day)	inflammatory findings (H&E, PAS staining) ([2]; proximal and distal regions of excised intestine)
≤ 1 h	CC1(C)C(/C=C/C=C/C=C/C=C2\N(CCCCS(=O)(=O)O)c3ccc4ccccc4c3C2(C)C)=[N+](CCCCS(=O)(=O)[O-])c2ccc3ccccc3c21 [ICG solution, Indocyanine green]	–	–
–	O=C(O)c1cc(/N=N/c2ccc(S(=O)(=O)Nc3ccccn3)cc2)ccc1O [sulfasalazine]	lower DAI compared to Group 2	many inflammatory findings were not found
